{"source": "patent US12433861B2", "about": "“Compositions and methods for treating reperfusion injury or hemorrhage after recanalization therapy” (GNT Pharma Co., Ltd., priority 2020, dated 2025)", "key": {"ischemic stroke patients": {"system": "ischemic stroke patients", "conditions": "human, in vivo, 5 days", "experimental": "NMDA receptor antagonists can cause adverse events in ischemic stroke patients.\nThe ENIS trial was to examine efficacy as well as safety of the intravenous infusions of nelonemdazK for acute ischemic stroke patients (35-80 years old) receiving at least one kind of thrombolytic drugs including rtPA or urokinase within 8 hours of onset. A total of 238 patients were enrolled for the ENIS trial and allocated randomly in a double-blinded manner to one of 4 groups for the intravenous infusions of test drugs as follows: (Group A) placebo [0.9% normal saline], (Group B) 2,750 mg nelonemdazK for 5 days [500 mg for 1st infusion followed by 2nd-10th infusions approximately at 12 h intervals (250 mg for each infusion)], (Group C) 5,250 mg nelonemdazK for 5 days [750 mg for 1st infusion followed by 2nd-10th infusions approximately at 12 h intervals (500 mg for each)], and (Group D) 6,000 mg nelonemdazK for 5 days [1500 mg for 1st infusion followed by 2nd-10th infusions approximately at 12 h intervals (500 mg for each)]. Acute ischemic stroke patients due to occlusion in internal carotid artery system within 8 hours of onset were enrolled. Patients with The National Institutes of Health Stroke Scale (NIHSS; range 0-42, with higher scores indicating greater stroke severity) scores of 4 to 22 and limb weakness including motor arm or motor leg score≥2 of NIHSS were included. All the patients received at least one kind of thrombolytic therapy before treatment of any study drug."}, "[1]": {"system": "acute ischemic stroke patients", "experiment": "SONIC phase II trial: acute ischemic stroke patients receiving endovascular thrombectomy with or without rt-PA", "type": "in vivo, human", "conditions": "for ratio of mRS 0-2 or 0: vs placebo, potassium salt", "experimental": "The SONIC trial was to examine efficacy and safety of the intravenous infusions of nelonemdazK for acute ischemic stroke patients (adults≥19) receiving endovascular thrombectomy with or without rt-PA within 8 hours of onset as described (Hong et al., 2018). A total of 209 patients were enrolled for the SONIC trial and allocated randomly in a double-blinded manner to one of 3 groups for the intravenous infusions of test drugs as follows: (Group A) placebo [0.9% normal saline], (Group B) 2,750 mg nelonemdazK for 5 days [500 mg for 1st infusion followed by 2nd-10th infusions approximately at 12 h intervals (250 mg for each infusion)], and (Group C) 5,250 mg nelonemdazK for 5 days [750 mg for 1st infusion followed by 2nd-10th infusions approximately at 12 h intervals (500 mg for each)].\nAcute ischemic stroke patients due to occlusion in carotid internal carotid artery system within 8 hours of onset were enrolled. Enrolled patients presented the National Institutes of Health Stroke Scale (NIHSS: range 0-42, with higher scores indicating greater stroke severity) scores and Alberta stroke program early CT score (ASPECTS: a 10-point quantitative topographic CT scan score used in patients with middle cerebral artery (MCA) stroke, with lower scores indicating larger cerebral infarction)≥6.\nFor statistical analysis, Cochran-Mantel-Haenszel (CMH) chi-square test was conducted to compare distribution and ratio of mRS scores for each group at 1, 4, and 12 weeks after drug treatment. Ordinal logistic regression was applied with multivariate analysis controlling confounding variables that may cause difference between the groups in participating institutions and baseline scores. In addition, generalized estimating equation (GEE) analysis was conducted to compare the changes between groups in mRS scores measured at 1, 4, and 12 weeks after drug treatment. For the analysis of the Barthel Index score and adverse events, chi-square test or Fisher exact test was conducted to compare difference between groups at 1, 4, and 12 weeks after drug treatment.\nAcute ischemic stroke patients who presented the baseline NIHSS score≥8 and the mRS distribution of 2-5 were enrolled for the SONIC trial. Out of a total of 209 patients, 152 patients successfully completed procedures including drug treatment for 5 days and scheduled analysis over 12 weeks after drug treatment according to the clinical protocol approved by Korea Ministry of Food and Drug Safety. […] The shift analysis implies that administration of nelonemdazK reduces disability in acute stroke patients treated with endovascular thrombectomy."}, "adult rats": {"system": "adult rats", "conditions": "rat, in vivo, iv, 200 mg/kg"}}, "note": "Entries after “also recorded” stand apart in the source; their conditions may differ."}
{"compound": "O=C([O-])c1cc(NCc2c(F)c(F)c(C(F)(F)F)c(F)c2F)ccc1O.[K+]", "note": "[nelonemdazK, 2-Hydroxy-5-(2,3,5,6-tetrafluoro-4-trifluoromethylbenzylamino)benzoic acid potassium salt]", "values": [{"measurement": "% of subjects showing abnormal behavior: Agitation", "setting": "ischemic stroke patients", "value": 2, "unit": "%"}, {"measurement": "% of subjects showing abnormal behavior: Confusion", "setting": "ischemic stroke patients", "value": "0 (0%)"}, {"measurement": "% of subjects showing abnormal behavior: Delirium", "setting": "ischemic stroke patients", "value": "0 (0%)"}, {"measurement": "% of subjects showing abnormal behavior: Hallucination", "setting": "ischemic stroke patients", "value": "0 (0%)"}, {"measurement": "% of subjects showing abnormal behavior: Paranoia", "setting": "ischemic stroke patients", "value": "0 (0%)"}, {"measurement": "% of subjects showing abnormal behavior: Stupor", "setting": "ischemic stroke patients", "value": "1 (1%)"}, {"measurement": "Number of subjects showing abnormal behavior: Agitation", "setting": "ischemic stroke patients", "value": 4}, {"measurement": "Number of subjects showing abnormal behavior: Confusion", "setting": "ischemic stroke patients", "value": "0 (0%)"}, {"measurement": "Number of subjects showing abnormal behavior: Delirium", "setting": "ischemic stroke patients", "value": "0 (0%)"}, {"measurement": "Number of subjects showing abnormal behavior: Hallucination", "setting": "ischemic stroke patients", "value": "0 (0%)"}, {"measurement": "Number of subjects showing abnormal behavior: Paranoia", "setting": "ischemic stroke patients", "value": "0 (0%)"}, {"measurement": "Number of subjects showing abnormal behavior: Stupor", "setting": "ischemic stroke patients", "value": "1 (1%)"}, {"measurement": "ratio of mRS 0", "setting": "[1]; 1 week, high dose (5,250 mg) (placebo 2.04%, p=0.01)", "value": 16.67, "unit": "%"}, {"measurement": "ratio of mRS 0", "setting": "[1]; 1 week, low dose (2,750 mg) (placebo 2.04%, p=0.04)", "value": 12.96, "unit": "%"}, {"measurement": "ratio of mRS 0", "setting": "[1]; 4 weeks, high dose (5,250 mg) (placebo 6.12%, p=0.007)", "value": 26.67, "unit": "%"}, {"measurement": "ratio of mRS 0", "setting": "[1]; 4 weeks, low dose (2,750 mg) (placebo 6.12%, p=0.04)", "value": 20, "unit": "%"}, {"measurement": "ratio of mRS 0", "setting": "[1]; 12 weeks, high dose (5,250 mg) (placebo 8.16%, p=0.004)", "value": 31.25, "unit": "%"}, {"measurement": "ratio of patients with Barthel Index score higher than 90", "setting": "[1]; 12 weeks, high dose (placebo 41.86%, p<0.05)", "value": 64.44, "unit": "%"}, {"measurement": "ratio of mRS 0", "setting": "[1]; 12 weeks, low dose (2,750 mg) (placebo 8.16%, p=0.03)", "value": 23.64, "unit": "%"}, {"measurement": "ratio of patients with Barthel Index score higher than 90", "setting": "[1]; 12 weeks, low dose (placebo 41.86%)", "value": 54.72, "unit": "%"}, {"measurement": "drug-related adverse events", "setting": "[1]; IV up to 5,250 mg for 5 days, 12 weeks follow-up", "value": "no drug-related adverse events"}, {"measurement": "ratio of mRS 0-2 or 0", "setting": "[1]; high dose (5,250 mg, N=48), over 12 weeks", "value": "further increased; also recorded: increases"}, {"measurement": "ratio of mRS 0-2 or 0", "setting": "[1]; low dose (2,750 mg, N=55), over 12 weeks", "value": "further increased; also recorded: increases"}, {"measurement": "occurrence of adverse events and serious adverse events vs placebo", "setting": "[1]; over 12 weeks", "value": "no difference"}, {"measurement": "mortality rate", "setting": "[1]; over 12 weeks, high dose group (N=67) (placebo 8.57%)", "value": 4.48, "unit": "%"}, {"measurement": "mortality rate", "setting": "[1]; over 12 weeks, low dose group (N=71) (placebo 8.57%)", "value": 4.23, "unit": "%"}, {"measurement": "neuronal injury", "setting": "adult rats", "value": "not observed"}]}
